Experimental data reported in patent EP0830136B1, “NEW CRY[…] […]” (priority 1995, dated 1996).
Entries after “also recorded” stand apart in the source; their conditions may differ.

Assays:
[1] = tested on: human tumor cell lines KB and LoVo; assay: In vitro cytotoxicity, KB and LoVo; settings: read-out: cytotoxicities IC50's
[2] = tested on: tumors implanted in mice; settings: for total dosage required in vivo relative to comparator: mouse; for in vivo antitumor activity: statement in words
[3] = pH 11 / hydrolysis
[4] = tested on: Colon 26; assay: In vivo activity, Colon 26 experiment; design: species or system mice
Protocol: Gross log kill is defined as T-C/3.2 Td where T is the median time in days for the tumors of the treated group to reach 750mg, C is the median time in days for the tumors of the control group to reach 750mg, and Td is the tumor volume doubling time (T.H. Corbett et al., Cytotoxic Anticancer Drugs: Models and Concepts for Drug Discovery and Development, pp 35-87; Kluwer: Norwell, 1992).

[5] = tested on: SKVLB1 cells; assay: cells; format: cell-based; settings: Homo sapiens, SKVLB1, 48 h, read-out: SKVLB1 IC50 (nM)
Protocol: The Jurkat T cell leukemia line and A-10 rat aortic smooth muscle cells were obtained from the American Type Culture Collection and were cultured in BME containing 10% FBS and 50µg/mL gentamycin sulfate. […] Both cell lines were maintained in BME containing 10% FBS and 50µg/mL gentamycin sulfate.
Cell proliferation assays were performed as described by Skehan et al.^11 For Jurkat cells, cultures were treated with the indicated drugs as described in Skehan^11 and total cell numbers were determined by counting the cells in a hemacytometer. The percentage of cells in mitosis was determined by staining with 0.4% Giemsa in PBS followed by three rapid washes with PBS. At least 1000 cells per treatment were scored for the presence of mitotic figures and the mitotic index was calculated as the ratio of cells with mitotic figures to the total number of cells counted.

[6] = tested on: SKOV3 cells; assay: Cell proliferation assay (SRB staining), SKOV3; format: cell-based, Human; settings: 24 hours with IC50 doses
[7] = tested on: A-10 rat aortic smooth muscle cells; assay: Immunofluorescence of cytoskeleton in A-10 cells; format: cell-based
Protocol: A-10 cells were grown to near-confluency on glass coverslips in BME/10% FBS. Compounds in PBS were added to the indicated final concentrations and cells were incubated for an additional 24 hours. For the staining of microtubules and intermediate filaments, the cells were fixed with cold methanol and incubated with PBS containing 10% calf serum to block nonspecific binding sites. Cells were then incubated at 37°C for 60 min with either monoclonal anti-β-tubulin or with monoclonal anti-vimentin at dilutions recommended by the manufacturer. Bound primary antibodies were subsequently visualized by a 45-minute incubation with fluorescein-conjugated rabbit antimouse IgG. The coverslips were mounted on microscope slides and the fluorescence patterns were examined and photographed using a Zeiss Photomicroscope ill equipped with epifluorescence optics for fluorescein. […] PBS containing 100nM TRITC-phalloidin was then added and the mixture was allowed to incubate for 45 min at 37° C. The cells were washed rapidly three times with PBS before the coverslips were mounted and immediately photographed as described above.

[8] = tested on: Jurkat T cell leukemia line; assay: Jurkat cell proliferation and mitotic index; format: cell-based; settings: Homo sapiens; Jurkat cells, 24 hours; read-out: IC50s for inhibition of cell proliferation and accumulation of cells in mitosis
[9] = A-10 cells, 24 hours, 2µM cytochalasin B, 100nM vinblastine or 10nM cryptophycin compounds

COc1ccc(C[C@H]2NC(=O)/C=C/C[C@@H]([C@H](C)[C@H]3O[C@@H]3c3ccccc3)OC(=O)[C@H](CC(C)C)OC(=O)C(C)(C)CNC2=O)cc1Cl [Cryptophycin 52]
IC50 [1]: 0.043 to 0.07 nM | total dosage required in vivo relative to comparator [2]: roughly three times the total dosage compared with Cryptophycin 1 | in vivo antitumor activity [2]: active in vivo | stability of the C-D ester bond [3]: stable at pH 11

COc1ccc(C[C@H]2NC(=O)/C=C/C[C@@H]([C@H](C)[C@@H](O)[C@@H](Cl)c3ccccc3)OC(=O)[C@H](CC(C)C)OC(=O)C(C)(C)CNC2=O)cc1Cl [Cryptophycin 55]
gross log kill value [4]: 1.2 | IC50 [1]: 0.033 to 0.047 nM | total dosage required in vivo relative to comparator [2]: three times the total dosage compared with Cryptophycin 8 | in vivo antitumor activity [2]: active in vivo

CC(=O)O[C@H]1C(=O)[C@@]2(C)[C@H]([C@H](OC(=O)c3ccccc3)[C@]3(O)C[C@H](OC(=O)[C@H](O)[C@@H](NC(=O)c4ccccc4)c4ccccc4)C(C)=C1C3(C)C)[C@]1(OC(C)=O)CO[C@@H]1C[C@@H]2O [taxol]
IC50 [5]: 8000 nM | increase in cell number during treatment [6]: 25% | microtubule organization in taxol-treated cells ([7]; A-10 cells, 10µM taxol): extensively bundled

CC[C@]1(O)C[C@@H]2CN(CCc3c([nH]c4ccccc34)[C@@](C(=O)OC)(c3cc4c(cc3OC)N(C)[C@H]3[C@@](O)(C(=O)OC)[C@H](OC(C)=O)[C@]5(CC)C=CCN6CC[C@]43[C@@H]65)C2)C1 [vinblastine]
IC50 [5]: 4200 nM | increase in cell number during treatment [6]: 25% | increase in cell numbers in the 24 hours following removal of the drug ([6]; then drug-free medium): approximately 3 fold | microtubule depolymerization after taxol pretreatment [7]: pretreatment with taxol prevented microtubule depolymerization | microtubule repolymerization 1 hour after removal of drug ([7]; A-10 cells, 100nM vinblastine or 10nM cryptophycins for 24 hr, then drug-free medium 1 hour): significant levels of microtubules | microtubule repolymerization 24 hours after removal of drug ([7]; A-10 cells, 100nM vinblastine or 10nM cryptophycins for 24 hr, then drug-free medium 24 hours): complete morphological recovery | effect on microfilaments [7, 9]: Neither compound affected microfilawent organization | effect on microtubules [7, 9]: marked depletion of microtubules; also recorded: complete depolymerization of microtubules; also recorded: complete microtubule depolymerization | effect on vimentin intermediate filaments [7, 9]: collapsed, forming concentric rings around the nuclei | IC50 [8]: 8 nM
